The record followed here is patent US9421209B2, “Kinase modulators” (Rhizen Pharmaceuticals SA, priority 2009, dated 2016).

Data set [1] has as its target P110 δ/Pi3K δ (Homo sapiens, UniProt O00329). Put plainly: Fluorescent (HTRF) determination of PI3K enzyme activity, δ isoform. The class given is biochemical. Also on record: inhibition: dose or concentration left out as unconfirmed. Conditions: for IC50: read-out: P110 δ/ Pi3K δ IC 50 nM. In outline: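 HTRF kit detecting PIP3 formed from PIP2 by human PI3Kδ, at room temperature. Reaction started with 400 μM ATP (addition concentration) for 30 min, then stopped, and detection mix incubated 6–18 h in the dark. Percent inhibition taken against blank and enzyme controls, and IC50 fitted.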
A general note: Time-resolved FRET reads energy transfer from a long-lived donor to a nearby acceptor.

In data set [2] the target is P110β (Homo sapiens, UniProt P42338). Put plainly: Fluorescent (HTRF) determination of PI3K enzyme activity, β isoform. In kind it is biochemical. An excerpt:
(§1) Assay 1: Fluorescent determination of PI3Kinase Kinase enzyme activity
(§2) Phosphoinositide 3 kinases (PI3K) belong to a class of lipid kinases that play a critical role in the regulation of several key cellular processes. The PI3K are capable of phosphorylating the 3-hydroxy position of phosphoinositols thereby generating second messengers involved in downstream signalling events. The homogenous time resolved fluorescence (HTRF) assay allows detection of 3,4,5-triphosphate (PIP3) formed as a result of phosphorylation of phosphotidylinositol 4,5-biphosphate (PIP2) by PI3K isoforms such as α, β, γ or δ.
(§3) PI3K isoform activity for α, β, γ or δ was determined using a PI3K human HTRF™ Assay Kit (Millipore, Billerica, Mass.) with modifications. All incubations were carried out at room temperature. Briefly, 0.5 μl of 40× inhibitor (in 100% DMSO) or 100% DMSO were added to each well of a 384-well black plate (Greiner Bio-One, Monroe, N.C.) containing 14.5 μl 1× reaction buffer/PIP2 (10 mM MgCl2, 5 mM DTT, 1.38 μM PIP2) mix with or without enzyme and incubated for 10 min. After the initial incubation, 5 μl/well of 400 μM ATP was added and incubated for an additional 30 minutes. Reaction was terminated by adding 5 μl/well stop solution (Millipore, Billerica, Mass.). Five microliters of detection mix (Millipore, Billerica, Mass.) were then added to each well and was incubated for 6-18 h in the dark. HRTF ratio was measured on a microplate reader (BMG Labtech., Germany) at an excitation wavelength of 337 nm and emission wavelengths of 665 and 620 nm with an integration time of […]. Data were analyzed using Graphpad Prism (Graphpad software; San Diego Calif.) for IC50 determination. Percent inhibition was calculated based on the values for the blank and enzyme controls. The results are provided below in Table 2 & 3.

In data set [3] the target is P110α (Homo sapiens, UniProt P42336). Put plainly: Fluorescent (HTRF) determination of PI3K enzyme activity, α isoform. In kind it is biochemical.
Sequence of P110α (P42336 whole entry, canonical isoform): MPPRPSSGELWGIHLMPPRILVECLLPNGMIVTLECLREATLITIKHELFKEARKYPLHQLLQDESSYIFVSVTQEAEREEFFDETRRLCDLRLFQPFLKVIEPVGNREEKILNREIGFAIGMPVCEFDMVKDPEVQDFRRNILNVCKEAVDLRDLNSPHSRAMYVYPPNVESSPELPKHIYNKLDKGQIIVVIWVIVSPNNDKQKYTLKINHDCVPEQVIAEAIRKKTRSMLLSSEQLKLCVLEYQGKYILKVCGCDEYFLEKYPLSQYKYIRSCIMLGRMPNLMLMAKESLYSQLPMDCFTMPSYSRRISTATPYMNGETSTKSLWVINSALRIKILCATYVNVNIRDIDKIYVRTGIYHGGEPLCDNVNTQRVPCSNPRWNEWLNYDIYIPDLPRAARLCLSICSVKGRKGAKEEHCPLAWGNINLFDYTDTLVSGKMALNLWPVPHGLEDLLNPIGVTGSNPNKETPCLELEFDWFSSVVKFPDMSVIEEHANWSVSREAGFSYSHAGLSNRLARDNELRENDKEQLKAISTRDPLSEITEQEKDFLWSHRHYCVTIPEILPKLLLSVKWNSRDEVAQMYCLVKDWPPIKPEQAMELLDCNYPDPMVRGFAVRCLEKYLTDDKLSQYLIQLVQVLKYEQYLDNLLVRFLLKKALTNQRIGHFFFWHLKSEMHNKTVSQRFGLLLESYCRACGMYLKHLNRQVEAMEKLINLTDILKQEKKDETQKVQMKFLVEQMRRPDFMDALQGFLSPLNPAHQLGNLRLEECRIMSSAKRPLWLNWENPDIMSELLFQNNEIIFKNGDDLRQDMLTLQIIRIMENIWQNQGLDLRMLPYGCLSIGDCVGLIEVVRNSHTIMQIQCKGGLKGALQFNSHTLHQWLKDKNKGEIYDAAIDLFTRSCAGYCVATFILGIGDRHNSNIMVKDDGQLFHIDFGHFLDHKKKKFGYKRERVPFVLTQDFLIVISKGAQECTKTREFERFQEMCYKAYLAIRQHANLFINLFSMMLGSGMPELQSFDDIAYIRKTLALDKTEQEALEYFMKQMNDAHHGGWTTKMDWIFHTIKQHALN
Sequence of P110α (P27986 whole entry partner, canonical isoform): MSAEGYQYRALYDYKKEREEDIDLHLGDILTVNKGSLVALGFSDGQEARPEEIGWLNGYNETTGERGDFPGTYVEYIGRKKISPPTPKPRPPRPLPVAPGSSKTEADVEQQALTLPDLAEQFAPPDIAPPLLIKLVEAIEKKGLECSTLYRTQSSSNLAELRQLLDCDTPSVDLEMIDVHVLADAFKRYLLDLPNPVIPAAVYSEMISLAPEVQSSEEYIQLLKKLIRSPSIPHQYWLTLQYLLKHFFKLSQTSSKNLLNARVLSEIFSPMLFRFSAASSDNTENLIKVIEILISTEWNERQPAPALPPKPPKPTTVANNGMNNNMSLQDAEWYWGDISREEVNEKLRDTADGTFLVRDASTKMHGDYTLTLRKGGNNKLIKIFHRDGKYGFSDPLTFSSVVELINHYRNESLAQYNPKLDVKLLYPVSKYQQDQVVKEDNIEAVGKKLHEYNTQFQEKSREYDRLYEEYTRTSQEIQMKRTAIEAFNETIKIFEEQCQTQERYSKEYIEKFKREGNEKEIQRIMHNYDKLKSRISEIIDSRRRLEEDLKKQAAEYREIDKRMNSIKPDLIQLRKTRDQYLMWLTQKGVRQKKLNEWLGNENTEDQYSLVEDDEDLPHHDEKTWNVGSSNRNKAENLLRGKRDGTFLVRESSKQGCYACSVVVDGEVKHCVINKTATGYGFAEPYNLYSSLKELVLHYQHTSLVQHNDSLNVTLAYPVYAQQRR
Source text: as §1, §2, §3

A value given as a limit tells only on which side of the number the result lay.

Sequence of P110β (P42338 whole entry, canonical isoform): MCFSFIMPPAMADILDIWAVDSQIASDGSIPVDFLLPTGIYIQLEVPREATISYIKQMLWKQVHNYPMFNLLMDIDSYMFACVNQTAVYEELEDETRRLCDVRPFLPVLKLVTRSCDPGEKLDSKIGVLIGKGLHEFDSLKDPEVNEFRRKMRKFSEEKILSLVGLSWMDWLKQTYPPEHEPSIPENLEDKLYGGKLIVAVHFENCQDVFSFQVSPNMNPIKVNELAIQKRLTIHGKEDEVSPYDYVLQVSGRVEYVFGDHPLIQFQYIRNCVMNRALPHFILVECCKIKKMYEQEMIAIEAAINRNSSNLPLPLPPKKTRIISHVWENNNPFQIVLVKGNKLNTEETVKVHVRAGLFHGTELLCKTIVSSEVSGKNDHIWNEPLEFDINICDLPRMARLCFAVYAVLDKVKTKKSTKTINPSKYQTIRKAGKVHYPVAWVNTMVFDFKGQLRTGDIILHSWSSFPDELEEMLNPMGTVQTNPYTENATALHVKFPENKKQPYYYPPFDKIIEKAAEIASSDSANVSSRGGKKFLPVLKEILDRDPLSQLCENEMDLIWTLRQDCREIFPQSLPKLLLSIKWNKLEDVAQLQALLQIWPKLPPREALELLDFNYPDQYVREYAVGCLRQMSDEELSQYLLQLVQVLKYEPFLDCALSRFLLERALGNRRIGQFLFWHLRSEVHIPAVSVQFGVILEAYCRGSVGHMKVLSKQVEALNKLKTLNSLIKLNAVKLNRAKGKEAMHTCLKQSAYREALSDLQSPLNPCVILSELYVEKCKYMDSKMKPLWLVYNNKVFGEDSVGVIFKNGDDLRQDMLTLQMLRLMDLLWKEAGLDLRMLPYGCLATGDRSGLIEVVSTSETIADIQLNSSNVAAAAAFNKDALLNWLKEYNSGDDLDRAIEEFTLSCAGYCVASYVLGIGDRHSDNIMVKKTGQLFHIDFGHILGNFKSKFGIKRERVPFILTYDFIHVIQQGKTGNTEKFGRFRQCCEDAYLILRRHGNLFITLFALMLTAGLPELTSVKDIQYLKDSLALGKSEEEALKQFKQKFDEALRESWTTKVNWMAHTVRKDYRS
Sequence of P110β (P27986 whole entry partner, canonical isoform): as the sequence (P27986 whole entry partner, canonical isoform) above
Sequence of P110 δ/Pi3K δ (O00329 whole entry, canonical isoform): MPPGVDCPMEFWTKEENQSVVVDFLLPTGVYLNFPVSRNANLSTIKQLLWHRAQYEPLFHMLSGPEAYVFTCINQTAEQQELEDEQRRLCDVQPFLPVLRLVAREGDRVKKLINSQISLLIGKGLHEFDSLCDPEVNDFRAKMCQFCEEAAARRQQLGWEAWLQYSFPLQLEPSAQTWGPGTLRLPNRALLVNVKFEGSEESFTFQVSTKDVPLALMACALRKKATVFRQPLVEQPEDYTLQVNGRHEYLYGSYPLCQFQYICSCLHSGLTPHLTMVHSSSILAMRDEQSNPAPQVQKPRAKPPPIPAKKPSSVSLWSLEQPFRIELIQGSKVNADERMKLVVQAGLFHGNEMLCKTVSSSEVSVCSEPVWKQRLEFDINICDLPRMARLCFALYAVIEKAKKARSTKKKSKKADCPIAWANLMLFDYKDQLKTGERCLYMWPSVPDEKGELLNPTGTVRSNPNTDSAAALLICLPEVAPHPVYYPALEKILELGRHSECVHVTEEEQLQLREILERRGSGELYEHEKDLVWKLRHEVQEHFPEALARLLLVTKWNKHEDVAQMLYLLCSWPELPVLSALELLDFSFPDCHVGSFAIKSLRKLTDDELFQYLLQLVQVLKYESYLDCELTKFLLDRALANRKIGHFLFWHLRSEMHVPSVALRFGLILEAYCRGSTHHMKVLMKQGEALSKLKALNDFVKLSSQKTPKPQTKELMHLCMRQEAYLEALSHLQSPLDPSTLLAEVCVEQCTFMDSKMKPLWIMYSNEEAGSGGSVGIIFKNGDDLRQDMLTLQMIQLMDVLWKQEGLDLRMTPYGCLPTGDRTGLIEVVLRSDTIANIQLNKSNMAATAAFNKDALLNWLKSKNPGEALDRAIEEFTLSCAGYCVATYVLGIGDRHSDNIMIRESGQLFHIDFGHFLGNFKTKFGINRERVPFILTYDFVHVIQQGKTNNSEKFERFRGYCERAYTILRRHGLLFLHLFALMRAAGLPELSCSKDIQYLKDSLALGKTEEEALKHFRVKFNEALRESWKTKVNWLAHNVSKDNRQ
Sequence of P110 δ/Pi3K δ (P27986 whole entry partner, canonical isoform): as the sequence (P27986 whole entry partner, canonical isoform) above

Broadly, the inhibition is the drop in the measured response relative to a control, in per cent. A word on the melting point: it is the temperature, or range, at which the solid turns liquid. The molecule `COc1c(C)cc(-c2nn(C(C)c3oc4ccccc4c(=O)c3-c3cccc(F)c3)c3ncnc(N)c23)cc1C` (stereo not shown) [Example 131, 2-(1-(4-amino-3-(4-methoxy-3,5-dimethylphenyl)-1H-pyrazolo[3,4-d]pyrimidin-1-yl)ethyl)-3-(3-fluorophenyl)-4H-chromen-4-one] registered a melting point of 234 to 236 °C. This molecule also had an inhibition in data set [1] of under 50%. This molecule yielded an inhibition at 1 µM in data set [2] of under 25%. In addition, the inhibition at 1 µM in data set [3] was 25 to 50%.

On to `CC(c1oc2ccccc2c(=O)c1-c1cccc(F)c1)n1nc(-c2ccc(S(C)(=O)=O)cc2)c2c(N)ncnc21` (stereo not shown) [Example 149, 2-(1-(4-amino-3-(4-(methylsulfonyl)phenyl)-1H-pyrazolo[3,4-d]pyrimidin-1-yl)ethyl)-3-(3-fluorophenyl)-4H-chromen-4-one], for which the melting point is 259 to 262 °C. In data set [1], this molecule came in with an inhibition of under 50%. The molecule also showed an inhibition at 1 µM in data set [2] of 25 to 50%.

Turning to `CC(c1oc2ccccc2c(=O)c1-c1cccc(F)c1)n1nc(-c2ccc(N3CCOCC3)nc2)c2c(N)ncnc21` (stereo not shown) [Example 137, 2-(1-(4-amino-3-(6-morpholinopyridin-3-yl)-1H-pyrazolo[3,4-d]pyrimidin-1-yl)ethyl)-3-(3-fluorophenyl)-4H-chromen-4-one], the melting point is 269 to 271 °C. In data set [1], the inhibition is under 50%. The inhibition at 1 µM in data set [2] lay in the range of 25 to 50%.

In turn, `CC(c1oc2ccccc2c(=O)c1-c1cccc(F)c1)n1nc(-c2ccc(OCc3ccccc3)cc2)c2c(N)ncnc21` (stereo not shown) [Example 147, 2-(1-(4-amino-3-(4-(benzyloxy)phenyl)-1H-pyrazolo[3,4-d]pyrimidin-1-yl)ethyl)-3-(3-fluorophenyl)-4H-chromen-4-one] gave a melting point of 176 to 178 °C. The inhibition in data set [1] was under 50%. Moreover, the inhibition at 1 µM in data set [2] is 25 to 50%.

Regarding `CC(c1oc2ccccc2c(=O)c1-c1cccc(F)c1)n1nc(-c2cnn(Cc3ccccc3)c2)c2c(N)ncnc21` (stereo not shown) [Example 134, 2-(1-(4-amino-3-(1-benzyl-1H-pyrazol-4-yl)-1H-pyrazolo[3,4-d]pyrimidin-1-yl)ethyl)-3-(3-fluorophenyl)-4H-chromen-4-one], the melting point lay within 140 to 142 °C. The same molecule displayed an inhibition in data set [1] of under 50%. The same molecule displayed an inhibition at 1 µM in data set [2] of 25 to 50%.

As to `CC(c1oc2ccccc2c(=O)c1-c1cccc(F)c1)n1nc(-c2ccc(N(C)C)cc2)c2c(N)ncnc21` (stereo not shown) [Example 148, 2-(1-(4-amino-3-(4-(dimethylamino)phenyl)-1H-pyrazolo[3,4-d]pyrimidin-1-yl)ethyl)-3-(3-fluorophenyl)-4H-chromen-4-one], the melting point lay in the range of 214 to 217 °C. The same molecule came in with an inhibition in data set [1] of 50 to 100%. The same molecule displayed an inhibition at 1 µM in data set [2] of 50 to 100%.

Turning to `Cc1n[nH]c2cc(-c3nn([C@H](C)c4oc5ccccc5c(=O)c4-c4cccc(F)c4)c4ncnc(N)c34)ccc12` (single isomer, unassigned) [Example 129, (−)-2-(1-(4-amino-3-(3-methyl-1H-indazol-6-yl)-1H-pyrazolo[3,4-d]pyrimidin-1-yl)ethyl)-3-(3-fluorophenyl)-4H-chromen-4-one], the melting point lay in the range of 157 to 160 °C. Moreover, the IC50 in data set [1] is over 500 nM. Besides, in data set [2] (1 µM), the “% inhibition (1 μM) P110β” value was “++ (++ is less than equal to 50% inhibition but more than equal to 25% at 1 μM)”.

As to `O=c1c(-c2ccccc2)c(Cn2cnc3c(Cl)ncnc32)oc2ccc(Br)cc12` [Example 10, 6-Bromo-2-[(6-chloro-9H-purin-9-yl)methyl]-3-phenyl-4H-chromen-4-one], the melting point was 234 to 236 °C. In data set [2], this molecule showed an inhibition at 1 µM of under 25%. In data set [3], the inhibition at 1 µM is under 25%.

As for `Cc1noc(C)c1-c1nn(C(C)c2oc3ccccc3c(=O)c2-c2cccc(F)c2)c2ncnc(N)c12` (stereo not shown) [Example 153, 2-(1-(4-amino-3-(3,5-dimethylisoxazol-4-yl)-1H-pyrazolo[3,4-d]pyrimidin-1-yl)ethyl)-3-(3-fluorophenyl)-4H-chromen-4-one], the melting point was in the range of 218 to 222 °C. In data set [1], the inhibition is under 50%. For the same molecule, in data set [2], the inhibition at 1 µM is under 25%.

For the molecule `CC(c1oc2ccccc2c(=O)c1-c1cccc(F)c1)n1nc(-c2ccco2)c2c(N)ncnc21` (stereo not shown) [Example 155, 2-(1-(4-amino-3-(furan-2-yl)-1H-pyrazolo[3,4-d]pyrimidin-1-yl)ethyl)-3-(3-fluorophenyl)-4H-chromen-4-one], the melting point was 234 to 236 °C. Moreover, the inhibition in data set [1] was 50 to 100%. The inhibition at 1 µM in data set [2] was under 25%.

Consider `O=c1c(-c2cccc(F)c2)c(CNc2ncnc3[nH]cnc23)oc2ccc(F)cc12` [Example 122, 2-((9H-purin-6-ylamino)methyl)-6-fluoro-3-(3-fluorophenyl)-4H-chromen-4-one], for which the melting point lay within 229 to 232 °C. In addition, the inhibition in data set [1] is under 50%. The inhibition at 1 µM in data set [2] fell in the range of 50 to 100%.

Consider `CC(c1oc2ccccc2c(=O)c1-c1cccc(F)c1)n1nc(-c2csc(C=O)c2)c2c(N)ncnc21` (stereo not shown) [Example 113, 4-(4-amino-1-(1-(3-(3-fluorophenyl)-4-oxo-4H-chromen-2-yl)ethyl)-1H-pyrazolo[3,4-d]pyrimidin-3-yl)thiophene-2-carbaldehyde], for which the melting point lay in the range of 192 to 195 °C. This molecule also registered an inhibition in data set [1] of 50 to 100%. This molecule returned an inhibition at 1 µM in data set [2] of under 25%.

Molecule `CC(c1oc2ccccc2c(=O)c1-c1cccc(F)c1)n1nc(-c2csc(CO)c2)c2c(N)ncnc21` (stereo not shown) [Example 114, 2-(1-(4-amino-3-(5-(hydroxymethyl)thiophen-3-yl)-1H-pyrazolo[3,4-d]pyrimidin-1-yl)ethyl)-3-(3-fluorophenyl)-4H-chromen-4-one] returned a melting point of 154 to 156 °C. In data set [1], the inhibition lay in the range of 50 to 100%. Also, the inhibition at 1 µM in data set [2] is under 25%.

In turn, `CCCOc1cccc(-c2nn(C(C)c3oc4ccccc4c(=O)c3-c3cccc(F)c3)c3ncnc(N)c23)c1` (stereo not shown) [Example 154, 2-(1-(4-amino-3-(3-propoxyphenyl)-1H-pyrazolo[3,4-d]pyrimidin-1-yl)ethyl)-3-(3-fluorophenyl)-4H-chromen-4-one] returned a melting point of 178 to 182 °C. The inhibition in data set [1] was under 50%. The inhibition at 1 µM in data set [2] is under 25%.

For `O=c1c(-c2ccccc2)c(CNc2ncnc3[nH]cnc23)oc2ccc(F)cc12` [Example 123, 2-((9H-purin-6-ylamino)methyl)-6-fluoro-3-phenyl-4H-chromen-4-one], the melting point lay within 183 to 186 °C. The inhibition in data set [1] is under 50%. The same molecule displayed an inhibition at 1 µM in data set [2] of under 25%.

In the case of `CC(c1oc2ccccc2c(=O)c1-c1cccc(F)c1)n1nc(-c2ccc3c(c2)OCCCO3)c2c(N)ncnc21` (stereo not shown) [Example 136, 2-(1-(4-amino-3-(3,4-dihydro-2H-benzo[b][1,4]dioxepin-7-yl)-1H-pyrazolo[3,4-d]pyrimidin-1-yl)ethyl)-3-(3-fluorophenyl)-4H-chromen-4-one], the melting point was 234 to 237 °C. In addition, in data set [1], the inhibition is under 50%. The same molecule yielded an inhibition at 1 µM in data set [2] of 25 to 50%.

On to `COc1cc(F)cc(-c2nn(Cc3oc4ccc(F)cc4c(=O)c3-c3cccc(F)c3)c3ncnc(N)c23)c1` [Example 120, 2-((4-amino-3-(3-fluoro-5-methoxyphenyl)-1H-pyrazolo[3,4-d]pyrimidin-1-yl)methyl)-6-fluoro-3-(3-fluorophenyl)-4H-chromen-4-one], for which the inhibition at 1 µM in data set [2] and in data set [3] was under 25% in each case.

The molecule `CC(=O)c1ccc(-c2nn(C(C)c3oc4ccccc4c(=O)c3-c3cccc(F)c3)c3ncnc(N)c23)cc1` (stereo not shown) [Example 146, 2-(1-(3-(4-acetylphenyl)-4-amino-1H-pyrazolo[3,4-d]pyrimidin-1-yl)ethyl)-3-(3-fluorophenyl)-4H-chromen-4-one] returned a melting point of 218 to 221 °C. The same molecule had an inhibition in data set [1] of 50 to 100%. Also, in data set [2], the inhibition at 1 µM was under 25%.

`CC(c1oc2ccccc2c(=O)c1-c1cccc(F)c1)n1nc(-c2cc3ccccc3s2)c2c(N)ncnc21` (stereo not shown) [Example 151, 2-(1-(4-amino-3-(benzo[b]thiophen-2-yl)-1H-pyrazolo[3,4-d]pyrimidin-1-yl)ethyl)-3-(3-fluorophenyl)-4H-chromen-4-one] yielded a melting point of 242 to 245 °C. For the same molecule, in data set [1], the inhibition was in the range of 50 to 100% and the IC50 was under 250 nM. The molecule further had an inhibition at 1 µM in data set [2] of 25 to 50%.
